Measurements from patent US9133183B2, “Imidazolidinones and analogs exhibiting anti-cancer and anti-proliferative activities” (Deciphera Pharmaceuticals, LLC, priority 2013, dated 2015).
Where two headings read alike, the source gives them in different places.

Columns and labels:
[1] = molecular target: unphosphorylated c-FMS kinase (uFMS, Seq. ID no. 1) (Homo sapiens (Human), UniProt P07333); assay: uFMS kinase assay (ADP production coupled to pyruvate kinase/lactate dehydrogenase); assay type: biochemical; conditions: enzymatic assay, ATP 500 μM
Method: uFMS kinase (Seq. ID No. 1) Assay
In this assay, the oxidation of NADH (thus the decrease at A340 nm) was continuously monitored spectrophometrically. The reaction mixture (100 μL) contained FMS (purchased from Millipore) (10 nM), polyE4Y (1 mg/mL), MgCl2 (10 mM), pyruvate kinase (4 units), lactate dehydrogenase (0.7 units), phosphoenol pyruvate (1 mM), NADH (0.28 mM) and ATP (500 μM) in 90 mM Tris buffer containing 0.2% octyl-glucoside and 1% DMSO, pH 7.5. The inhibition reaction was started by mixing serial diluted test compound with the above reaction mixture. The absorption at 340 nm was monitored continuously for 4 hours at 30° C. on Synergy 2 plate reader. The reaction rate was calculated using the 3 to 4 h time frame. Percent inhibition was obtained by comparison of reaction rate with that of a control (i.e., in the absence of test compound). IC50 values were calculated from a series of percent inhibition values determined at a range of inhibitor concentrations using software routines as implemented in the GraphPad Prism software package.
uFMS Kinase Sequence (Y538-End) Used for Screening (Seq. ID No. 1)

osteoclast precursors = assay: Osteoclast tartrate-resistant acid phosphatase assay; assay type: cell-based; conditions: Osteoclast, 7-14 days, RANKL and M-CSF
Method: Osteoclast Tartrate-Resistant Acid Phosphatase Assay
A serial dilution of test compound was dispensed into a 384-well black clear bottom plate (Nalge Nunc International, Rochester, N.Y.). Compound was diluted by the addition of DMEM media supplemented with 10% characterized fetal bovine serum (Invitrogen, Carlsbad, Calif.). Diluted compound was transferred to a 384-well black clear bottom plate. Two-thousand five hundred osteoclast precursors (Lonza, Walkersville, Md.) were added per well in growth media containing Receptor Activator of Nuclear Factor Kappa-beta ligand (RANKL) and M-CSF (R&D Systems, Minneapolis, Minn.). Plates were incubated for 7-14 days at 37 degrees Celsius, 5% CO2, and 95% humidity to allow differentiation of osteoclast precursors. At the end of the incubation period, 10 μL of supernatant from each well was transferred to a clear 384-well plate. Tartrate-resistant acid phosphatase activity in the supernatant samples was determined using an acid phosphatase assay kit (Sigma, St. Louis, Mo.). Absorbance was measured at 550 nm using a plate reader. Data was analyzed using Prism software (Graphpad, San Diego, Calif.) to calculate IC50 values.

[2] = molecular target: unphosphorylated c-KIT kinase (uKIT, Seq. ID no. 2) (Homo sapiens (Human), UniProt P10721); assay: uKit kinase assay (coupled pyruvate kinase/lactate dehydrogenase); assay type: biochemical; conditions: enzymatic assay, ATP 2000 μM
Method: uKit Kinase (Seq. ID No. 2) Assay
Activity of unphosphorylated c-KIT kinase (uKIT, Seq. ID no. 2) was determined by following the production of ADP from the KIT kinase reaction with ATP and poly E4Y as substrates through coupling with the pyruvate kinase/lactate dehydrogenase system (e.g., Schindler et al. Science (2000) 289: 1938-1942). In this assay, the oxidation of NADH (thus the decrease at A340 nm) was continuously monitored spectrophometrically. The reaction mixture (100 μl) contained unphosphorylated KIT (12 nM), polyE4Y (1 mg/mL), MgCl2 (10 mM), pyruvate kinase (4 units), lactate dehydrogenase (0.7 units), phosphoenol pyruvate (1 mM), and NADH (0.28 mM) and ATP (2000 μM) in 90 mM Tris buffer containing 0.2% octyl-glucoside and 1% DMSO, pH 7.5. The inhibition reaction was started by mixing serial diluted test compound with the above reaction mixture. The absorption at 340 nm was monitored continuously for 4 hours at 30° C. on Synergy 2 plate reader (BioTech). Reaction rates around 3 to 4 h time frame were used to calculate % inhibitions, from which IC50 values were generated.
uKit with N-Terminal GST Fusion Used for Screening (Seq ID No. 2)

M-NFS-60 cells = assay: M-NFS-60 cell proliferation assay (resazurin); assay type: cell-based; conditions: 67 h incubation
Method: M-NFS-60 cells (catalog #CRL-1838) were obtained from the American Type Culture Collection (ATCC, Manassas, Va.). Briefly, cells were grown in suspension in RPMI 1640 medium supplemented with 10% characterized fetal bovine serum (Invitrogen, Carlsbad, Calif.), 0.05 mM 2-mercaptoethanol, and 20 ng/mL mouse recombinant macrophage colony stimulating factor (M-CSF) at 37° C., 5% CO2, and 95% humidity. Cells were allowed to expand until reaching saturation at which point they were subcultured or harvested for assay use.
M-NFS-60 Cell Proliferation Assay
A serial dilution of test compound was dispensed into a 384-well black clear bottom plate (Corning, Corning, N.Y.). Two thousand five hundred cells were added per well in 50 μL complete growth medium. Plates were incubated for 67 h at 37° C., 5% CO2, and 95% humidity. At the end of the incubation period 10 μL of a 440 μM solution of resazurin (Sigma, St. Louis, Mo.) in PBS was added to each well and incubated for an additional 5 h at 37° C., 5% CO2, and 95% humidity. Plates were read on a Synergy2 reader (Biotek, Winooski, Vt.) using an excitation of 540 nm and an emission of 600 nm. IC50 values were calculated from a series of percent inhibition values determined at a range of inhibitor concentrations using software routines as implemented in the GraphPad Prism software package.

Sequence of unphosphorylated c-FMS kinase (uFMS, Seq. ID no. 1) (P07333 538-972): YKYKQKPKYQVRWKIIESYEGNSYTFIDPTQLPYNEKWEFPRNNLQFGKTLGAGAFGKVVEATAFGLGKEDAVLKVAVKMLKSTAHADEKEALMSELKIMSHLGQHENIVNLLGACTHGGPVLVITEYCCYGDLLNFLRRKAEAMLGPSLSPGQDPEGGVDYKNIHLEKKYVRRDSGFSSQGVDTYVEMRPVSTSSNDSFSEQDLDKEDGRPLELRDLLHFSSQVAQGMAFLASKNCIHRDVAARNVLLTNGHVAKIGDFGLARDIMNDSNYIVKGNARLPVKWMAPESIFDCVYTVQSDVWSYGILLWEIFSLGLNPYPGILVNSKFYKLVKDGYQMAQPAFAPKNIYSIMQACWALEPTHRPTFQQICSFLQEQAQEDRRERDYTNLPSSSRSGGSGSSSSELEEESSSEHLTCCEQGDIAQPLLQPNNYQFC
Sequence of unphosphorylated c-KIT kinase (uKIT, Seq. ID no. 2) (P10721 other isoform, or with tags, fused parts or gaps): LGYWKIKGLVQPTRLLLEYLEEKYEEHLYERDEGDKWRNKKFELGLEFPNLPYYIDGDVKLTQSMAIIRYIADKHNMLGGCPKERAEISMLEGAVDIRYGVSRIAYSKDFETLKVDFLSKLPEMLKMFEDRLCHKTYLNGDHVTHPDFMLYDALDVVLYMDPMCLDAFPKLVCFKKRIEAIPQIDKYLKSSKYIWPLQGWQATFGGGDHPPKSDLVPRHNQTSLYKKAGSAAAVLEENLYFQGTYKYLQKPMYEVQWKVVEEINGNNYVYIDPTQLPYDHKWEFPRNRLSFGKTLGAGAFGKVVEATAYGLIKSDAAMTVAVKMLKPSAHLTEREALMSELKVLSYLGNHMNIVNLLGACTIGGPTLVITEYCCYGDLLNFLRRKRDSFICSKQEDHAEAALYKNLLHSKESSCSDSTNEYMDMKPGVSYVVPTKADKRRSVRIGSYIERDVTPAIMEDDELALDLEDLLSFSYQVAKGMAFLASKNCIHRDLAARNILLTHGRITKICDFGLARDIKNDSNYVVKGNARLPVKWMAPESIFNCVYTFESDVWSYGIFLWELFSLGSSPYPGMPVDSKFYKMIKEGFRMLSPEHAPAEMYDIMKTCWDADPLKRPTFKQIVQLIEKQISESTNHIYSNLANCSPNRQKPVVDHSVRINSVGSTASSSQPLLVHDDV

IC50 ([1]; read-out: uFMS) | IC50 (osteoclast precursors) | IC50 [2] | SMILES | IC50 (M-NFS-60 cells) | IC50 ([1]; uFMS)
0.1 to 1 µM | 0.1 to 1 µM | 0.1 to 1 µM | CCN1CCN(C(=O)Nc2ccc(Oc3ccnc(-n4cnc(C)c4)c3)cn2)C1=O [Example 79, 3-ethyl-N-(5-((2-(4-methyl-1H-imidazol-1-yl)pyridin-4-yl)oxy)pyridin-2-yl)-2-oxoimidazolidine-1-carboxamide] | > 1 µM | –
0.01 to 0.1 µM | 0.1 to 1 µM | > 1 µM | CCc1nc(NC(=O)N2CCN(C3CCCC3)C2=O)ccc1Oc1ccnc(-c2cnc(C)s2)c1 [Example 78, 3-cyclopentyl-N-(6-ethyl-5-((2-(2-methylthiazol-5-yl)pyridin-4-yl)oxy)pyridin-2-yl)-2-oxoimidazolidine-1-carboxamide] | > 1 µM | –
0.01 to 0.1 µM | 0.1 to 1 µM | > 1 µM | COCCN1CCN(C(=O)Nc2ccc(Oc3ccnc(-c4cn(C)cn4)c3)c(C)n2)C1=O [Example 81, 3-(2-methoxyethyl)-N-(6-methyl-5-((2-(1-methyl-1H-imidazol-4-yl)pyridin-4-yl)oxy)pyridin-2-yl)-2-oxoimidazolidine-1-carboxamide] | 0.1 to 1 µM | –

The remaining lines, values behind:

SMILES | IC50 ([1]; read-out: uFMS) | IC50 (osteoclast precursors) | IC50 [2] | IC50 (M-NFS-60 cells) | IC50 ([1]; uFMS)
CCc1nc(NC(=O)N2CCN(C3CCOCC3)C2=O)ccc1Oc1ccnc(-c2ccc(C)nc2)c1 [Example 63, N-(6-ethyl-5-((6′-methyl-[2,3′-bipyridin]-4-yl)oxy)pyridin-2-yl)-2-oxo-3-(tetrahydro-2H-pyran-4-yl)imidazolidine-1-carboxamide] | 0.1 to 1 µM | > 1 µM | > 1 µM | > 1 µM | –
Cc1cn(-c2cc(Oc3ccc(NC(=O)N4CCN(CC(F)(F)F)C4=O)nc3)ccn2)cn1 [Example 76, N-(5-((2-(4-methyl-1H-imidazol-1-yl)pyridin-4-yl)oxy)pyridin-2-yl)-2-oxo-3-(2,2,2-trifluoroethyl)imidazolidine-1-carboxamide] | 0.01 to 0.1 µM | 0.1 to 1 µM | 0.1 to 1 µM | 0.1 to 1 µM | –
CCc1nc(NC(=O)N2CCN(C3CCOCC3)C2=O)ccc1Oc1ccnc(-c2ccnc(C)c2)c1 [Example 64, N-(6-ethyl-5-((2′-methyl-[2,4′-bipyridin]-4-yl)oxy)pyridin-2-yl)-2-oxo-3-(tetrahydro-2H-pyran-4-yl)imidazolidine-1-carboxamide] | 0.1 to 1 µM | > 1 µM | > 1 µM | > 1 µM | –
COCCN1CCN(C(=O)Nc2ccc(Oc3ccnc(-c4cnc(C)s4)c3)cn2)C1=O [Example 62, 3-(2-methoxyethyl)-N-(5-((2-(2-methylthiazol-5-yl)pyridin-4-yl)oxy)pyridin-2-yl)-2-oxoimidazolidine-1-carboxamide] | 0.1 to 1 µM | 0.1 to 1 µM | 0.1 to 1 µM | 0.1 to 1 µM | –
COC[C@H](C)N1CCN(C(=O)Nc2ccc(Oc3ccnc(-c4cnn(C)c4)c3)c(C)n2)C1=O [Example 38, (S)-3-(1-methoxypropan-2-yl)-N-(6-methyl-5-((2-(1-methyl-1H-pyrazol-4-yl)pyridin-4-yl)oxy)pyridin-2-yl)-2-oxoimidazolidine-1-carboxamide] | – | < 0.01 µM | < 0.01 µM | 0.01 to 0.1 µM | 0.01 to 0.1 µM
Cc1ncc(-c2cc(Oc3ccc(NC(=O)N4CCN(C5CCOCC5)C4=O)nc3C)ccn2)s1 [Example 66, N-(6-methyl-5-((2-(2-methylthiazol-5-yl)pyridin-4-yl)oxy)pyridin-2-yl)-2-oxo-3-(tetrahydro-2H-pyran-4-yl)imidazolidine-1-carboxamide] | 0.01 to 0.1 µM | 0.1 to 1 µM | 0.1 to 1 µM | 0.1 to 1 µM | –
Cc1ncc(-c2cc(Oc3ccc(NC(=O)N4CCN(CC(F)(F)F)C4=O)nc3C)ccn2)s1 [Example 74, N-(6-methyl-5-((2-(2-methylthiazol-5-yl)pyridin-4-yl)oxy)pyridin-2-yl)-2-oxo-3-(2,2,2-trifluoroethyl)imidazolidine-1-carboxamide] | 0.01 to 0.1 µM | 0.01 to 0.1 µM | 0.1 to 1 µM | 0.1 to 1 µM | –
